Data set [1] in a line: Aqueous solubility measurements. The class given is physicochemical. Conditions: for Aqueous solubility: in water. From the text: Aqueous solubility measurements were done on L-Se-methylselenocysteine and γ-L-glutamyl-L-Se-methylselenocysteine; The solubility of L-Se-methylselenocysteine was ca. 10% with dissolution occurring in two hours in water.

One may read the melting point as the temperature of the solid-liquid transition.

Molecule `C[Se]CC[C@H](NC(=O)CC[C@H](N)C(=O)O)C(=O)O` showed a melting point of 192 to 194 °C.

With `C[Se]C[C@H](N)C(=O)O` [L-Se-methylselenocysteine, reference compound], in data set [1], the “Time for dissolution in water” value was “two hours” and the Aqueous solubility entry is listed as “ca. 10%”.

`C[Se]C[C@H](NC(=O)CC[C@H](N)C(=O)O)C(=O)O` [γ-L-glutamyl-L-Se-methylselenocysteine, γ-L-glutamyl-Se-methyl-L-selenocysteine] yielded a melting point of 159 to 161 °C. In addition, in data set [1], the “Time for dissolution in water” value is given as “thirty minutes” and the Aqueous solubility result is listed as “ca. 25%”.

The values above are taken from patent US8193156B1, “Dipeptides incorporating selenoamino acids with enhanced bioavailability—synthesis, pharmaceutical and cosmeceutical applications thereof” (Sami Labs Ltd, priority 2006, dated 2012).
